Experimental findings from ChEMBL document CHEMBL4052759, “Discovery of DS79182026: A potent orally active hepcidin production inhibitor” (Bioorg Med Chem Lett, 2017) are described below.

The structures appear in SMILES notation.

In data set [1] the test system is Mitogen-activated protein kinase 14 (Homo sapiens), Q16539 [T106M]. As to the kind of experiment: Inhibition of SAPK2a T106M mutant (unknown origin) at 0.49 uM relative to control.
Data set [2] concerns Tyrosine-protein kinase ABL1 (Homo sapiens), P00519 [H396P]. As to the kind of experiment: Inhibition of Abl H396P mutant (unknown origin) at 0.49 uM relative to control.
For data set [3], the target named is Receptor-type tyrosine-protein kinase FLT3 (Homo sapiens) (UniProt P36888). Put plainly: Inhibition of FLT3 (unknown origin) at 0.49 uM relative to control.
Data set [4] concerns the target SRSF protein kinase 2 (Homo sapiens) (UniProt P78362). Put plainly: Inhibition of SRPK2 (unknown origin) at 0.49 uM relative to control.
In data set [5] the target is Ephrin type-A receptor 1 (Homo sapiens) (UniProt P21709). As to the kind of experiment: Inhibition of EPHA1 (unknown origin) at 0.49 uM relative to control.
For data set [6], the target named is Serine/threonine-protein kinase Nek1 (Homo sapiens) (UniProt Q96PY6). As to the kind of experiment: Inhibition of NEK1 (unknown origin) at 0.49 uM relative to control.
Data set [7] deals with Serine/threonine-protein kinase Nek6 (Homo sapiens) (UniProt Q9HC98). As to the kind of experiment: Inhibition of NEK6 (unknown origin) at 0.49 uM relative to control.
The target in data set [8] is T1, MAP kinase-activated protein kinase 5 (Homo sapiens) (UniProt Q8IW41).
T1 sequence (whole entry): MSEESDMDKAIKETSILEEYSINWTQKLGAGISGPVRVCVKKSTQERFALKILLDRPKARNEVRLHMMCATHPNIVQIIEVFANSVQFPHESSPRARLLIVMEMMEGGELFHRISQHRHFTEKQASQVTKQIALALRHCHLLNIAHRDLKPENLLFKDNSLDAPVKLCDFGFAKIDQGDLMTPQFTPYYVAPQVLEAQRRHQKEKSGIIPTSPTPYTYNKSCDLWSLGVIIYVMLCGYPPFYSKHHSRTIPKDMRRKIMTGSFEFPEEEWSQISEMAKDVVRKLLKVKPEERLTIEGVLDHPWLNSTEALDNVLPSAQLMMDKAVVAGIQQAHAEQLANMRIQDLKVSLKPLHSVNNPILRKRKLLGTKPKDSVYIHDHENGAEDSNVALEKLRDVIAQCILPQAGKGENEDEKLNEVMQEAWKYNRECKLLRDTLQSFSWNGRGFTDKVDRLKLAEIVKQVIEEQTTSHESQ
Put plainly: Inhibition of PRAK (unknown origin) at 0.49 uM relative to control.

In data set [9] the target is Ribosomal protein S6 kinase alpha-3 (Homo sapiens) (UniProt P51812). As to the kind of experiment: Inhibition of RSK2 (unknown origin) at 0.49 uM relative to control.
Data set [10] has as its system Hepatocyte growth factor receptor (Homo sapiens), P08581 [M1250T]. As to the kind of experiment: Inhibition of MET M1250T mutant (unknown origin) at 0.49 uM relative to control.
Data set [11] addresses Tyrosine-protein kinase Lck (Homo sapiens) (UniProt P06239). As to the kind of experiment: Inhibition of LCK (unknown origin) at 0.49 uM relative to control.
Data set [12] deals with Protein kinase C iota type (Homo sapiens) (UniProt P41743). As to the kind of experiment: Inhibition of PKC-iota (unknown origin) at 0.49 uM relative to control.
Data set [13] has as its system Fibroblast growth factor receptor 2 (Homo sapiens), P21802 [N549H]. Put plainly: Inhibition of FGFR2 N549H mutant (unknown origin) at 0.49 uM.
Data set [14] addresses Protein kinase C epsilon type (Homo sapiens) (UniProt Q02156). As to the kind of experiment: Inhibition of PKC-epsilon (unknown origin) at 0.49 uM relative to control.
The target in data set [15] is Mitogen-activated protein kinase 11 (Homo sapiens) (UniProt Q15759). Put plainly: Inhibition of p38-beta2 (unknown origin) at 0.49 uM relative to control.
In data set [16] the target is Protein kinase C theta type (Homo sapiens) (UniProt Q04759). Put plainly: Inhibition of PKC-theta (unknown origin) at 0.49 uM relative to control.
Data set [17] deals with Tyrosine-protein kinase SYK (Homo sapiens) (UniProt P43405). As to the kind of experiment: Inhibition of SYK (unknown origin) at 0.45 uM relative to control.
The target in data set [18] is Casein kinase I isoform epsilon (Homo sapiens) (UniProt P49674). As to the kind of experiment: Inhibition of CK1-epsilon (unknown origin) at 0.45 uM relative to control.
Data set [19] has as its target High affinity nerve growth factor receptor (Homo sapiens) (UniProt P04629). Put plainly: Inhibition of TRKA (unknown origin) at 0.45 uM relative to control.
Data set [20] addresses Homeodomain-interacting protein kinase 4 (Homo sapiens) (UniProt Q8NE63). Put plainly: Inhibition of HIPK4 (unknown origin) at 0.45 uM relative to control.
Data set [21] addresses Tyrosine-protein kinase ABL1 (Homo sapiens) (UniProt P00519). Put plainly: Inhibition of ABL (unknown origin) at 0.45 uM relative to control.
The nature of data set [22]: Metabolic stability in mouse liver microsomes assessed as […] by measuring parent compound remaining at 1 uM after 0.5 hrs by LC-MS/MS analysis. Conditions: read-out: Stability. It is filed as ADME. On the technique in general: Liver microsomes are vesicles of endoplasmic reticulum, rich in cytochrome P450 enzymes.
Data set [23] has as its target Inhibitor of nuclear factor kappa-B kinase subunit beta (Homo sapiens) (UniProt O14920). Put plainly: Inhibition of IKK-beta (unknown origin) at 0.45 uM relative to control.
Data set [24] deals with Phosphorylase b kinase gamma catalytic chain, liver/testis isoform (Homo sapiens) (UniProt P15735). As to the kind of experiment: Inhibition of PhKg2 (unknown origin) at 0.45 uM relative to control.
The target in data set [25] is ALK tyrosine kinase receptor (Homo sapiens) (UniProt Q9UM73). As to the kind of experiment: Inhibition of ALK (unknown origin) at 0.45 uM relative to control.
For data set [26], the target named is Mitogen-activated protein kinase 14 (Homo sapiens) (UniProt Q16539). As to the kind of experiment: Inhibition of p38a (unknown origin) at 0.078 uM relative to control.
Data set [27] has as its target T2, Interleukin-1 receptor-associated kinase 4 (Homo sapiens) (UniProt Q9NWZ3).
T2 sequence (whole entry): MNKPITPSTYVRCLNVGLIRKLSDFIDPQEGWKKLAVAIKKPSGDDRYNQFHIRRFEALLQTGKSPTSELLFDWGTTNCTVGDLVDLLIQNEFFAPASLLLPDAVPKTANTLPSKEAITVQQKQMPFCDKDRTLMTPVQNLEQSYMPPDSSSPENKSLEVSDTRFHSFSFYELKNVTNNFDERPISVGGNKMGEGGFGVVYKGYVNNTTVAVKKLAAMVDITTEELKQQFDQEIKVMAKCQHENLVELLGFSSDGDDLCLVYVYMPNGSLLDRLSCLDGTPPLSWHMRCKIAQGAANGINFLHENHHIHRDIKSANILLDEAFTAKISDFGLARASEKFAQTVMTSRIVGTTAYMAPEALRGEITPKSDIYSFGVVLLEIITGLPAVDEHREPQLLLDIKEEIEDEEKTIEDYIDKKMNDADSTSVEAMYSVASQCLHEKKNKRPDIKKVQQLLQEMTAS
Put plainly: Inhibition of IRAK4 (unknown origin) at 0.078 uM relative to control.

For orientation: inhibition means the change of the read-out against control, counted positive when it falls.

Sequence of Homeodomain-interacting protein kinase 4 (Homo sapiens) (Q8NE63 whole entry): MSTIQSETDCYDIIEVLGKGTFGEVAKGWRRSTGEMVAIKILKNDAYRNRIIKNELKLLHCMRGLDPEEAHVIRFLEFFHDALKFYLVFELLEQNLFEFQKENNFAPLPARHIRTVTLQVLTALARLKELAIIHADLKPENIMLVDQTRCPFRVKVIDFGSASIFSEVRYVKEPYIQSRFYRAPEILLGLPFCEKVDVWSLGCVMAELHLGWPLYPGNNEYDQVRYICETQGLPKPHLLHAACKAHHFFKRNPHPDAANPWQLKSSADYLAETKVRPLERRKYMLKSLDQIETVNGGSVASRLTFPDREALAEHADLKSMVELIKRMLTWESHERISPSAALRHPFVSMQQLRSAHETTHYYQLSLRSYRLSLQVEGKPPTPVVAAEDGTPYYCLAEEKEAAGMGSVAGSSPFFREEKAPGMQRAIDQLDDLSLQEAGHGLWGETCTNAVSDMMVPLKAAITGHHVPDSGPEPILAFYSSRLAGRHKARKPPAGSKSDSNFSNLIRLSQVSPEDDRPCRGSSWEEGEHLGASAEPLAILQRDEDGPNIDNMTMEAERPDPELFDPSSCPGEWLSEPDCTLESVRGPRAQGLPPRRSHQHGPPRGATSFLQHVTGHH
Sequence of Casein kinase I isoform epsilon (Homo sapiens) (P49674 whole entry, looked up, canonical isoform): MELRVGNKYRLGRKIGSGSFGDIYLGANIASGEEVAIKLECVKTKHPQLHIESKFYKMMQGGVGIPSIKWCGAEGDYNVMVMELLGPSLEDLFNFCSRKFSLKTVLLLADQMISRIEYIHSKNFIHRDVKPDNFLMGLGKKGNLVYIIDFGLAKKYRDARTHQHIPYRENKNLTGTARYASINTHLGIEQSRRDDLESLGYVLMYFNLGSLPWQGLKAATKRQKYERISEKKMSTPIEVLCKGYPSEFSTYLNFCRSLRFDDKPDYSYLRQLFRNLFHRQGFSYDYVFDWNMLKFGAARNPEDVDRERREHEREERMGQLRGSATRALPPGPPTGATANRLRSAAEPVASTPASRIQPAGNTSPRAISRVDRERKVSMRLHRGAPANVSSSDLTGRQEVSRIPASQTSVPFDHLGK
Sequence of High affinity nerve growth factor receptor (Homo sapiens) (P04629 33-796 limits assumed): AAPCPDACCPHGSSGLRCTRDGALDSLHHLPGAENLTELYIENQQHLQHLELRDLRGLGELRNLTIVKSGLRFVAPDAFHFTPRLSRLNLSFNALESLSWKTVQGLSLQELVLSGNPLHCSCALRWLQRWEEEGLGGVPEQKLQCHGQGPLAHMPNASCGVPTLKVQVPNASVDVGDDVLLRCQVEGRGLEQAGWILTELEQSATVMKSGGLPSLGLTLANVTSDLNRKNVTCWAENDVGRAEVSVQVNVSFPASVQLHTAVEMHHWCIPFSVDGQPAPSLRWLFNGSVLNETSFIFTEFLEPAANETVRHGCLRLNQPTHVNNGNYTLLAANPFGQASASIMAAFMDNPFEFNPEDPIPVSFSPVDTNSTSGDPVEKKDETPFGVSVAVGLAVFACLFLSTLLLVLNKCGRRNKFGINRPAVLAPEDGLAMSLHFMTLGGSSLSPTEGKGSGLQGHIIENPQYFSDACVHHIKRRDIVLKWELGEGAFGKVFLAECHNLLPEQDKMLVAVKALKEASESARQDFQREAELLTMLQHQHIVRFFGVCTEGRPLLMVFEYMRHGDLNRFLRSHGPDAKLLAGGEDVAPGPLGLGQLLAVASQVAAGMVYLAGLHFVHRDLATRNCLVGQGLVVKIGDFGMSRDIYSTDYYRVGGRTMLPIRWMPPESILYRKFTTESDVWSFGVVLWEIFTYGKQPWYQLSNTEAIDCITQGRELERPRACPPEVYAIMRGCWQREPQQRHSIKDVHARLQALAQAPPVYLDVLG
Sequence of Tyrosine-protein kinase Lck (Homo sapiens) (P06239 2-509 limits assumed): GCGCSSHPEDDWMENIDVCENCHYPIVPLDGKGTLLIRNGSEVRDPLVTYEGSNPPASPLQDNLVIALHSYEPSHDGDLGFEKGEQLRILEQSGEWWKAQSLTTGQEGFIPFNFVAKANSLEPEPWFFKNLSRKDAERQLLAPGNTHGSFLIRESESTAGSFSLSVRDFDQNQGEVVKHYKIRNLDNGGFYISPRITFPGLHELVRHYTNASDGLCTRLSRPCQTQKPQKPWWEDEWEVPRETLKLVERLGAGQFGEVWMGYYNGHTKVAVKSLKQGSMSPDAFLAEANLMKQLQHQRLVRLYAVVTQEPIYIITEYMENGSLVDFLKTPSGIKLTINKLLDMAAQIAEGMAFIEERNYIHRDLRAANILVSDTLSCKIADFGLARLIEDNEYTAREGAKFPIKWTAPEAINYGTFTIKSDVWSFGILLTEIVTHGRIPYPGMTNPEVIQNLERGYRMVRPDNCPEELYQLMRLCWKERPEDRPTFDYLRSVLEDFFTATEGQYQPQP
Sequence of Receptor-type tyrosine-protein kinase FLT3 (Homo sapiens) (P36888 whole entry): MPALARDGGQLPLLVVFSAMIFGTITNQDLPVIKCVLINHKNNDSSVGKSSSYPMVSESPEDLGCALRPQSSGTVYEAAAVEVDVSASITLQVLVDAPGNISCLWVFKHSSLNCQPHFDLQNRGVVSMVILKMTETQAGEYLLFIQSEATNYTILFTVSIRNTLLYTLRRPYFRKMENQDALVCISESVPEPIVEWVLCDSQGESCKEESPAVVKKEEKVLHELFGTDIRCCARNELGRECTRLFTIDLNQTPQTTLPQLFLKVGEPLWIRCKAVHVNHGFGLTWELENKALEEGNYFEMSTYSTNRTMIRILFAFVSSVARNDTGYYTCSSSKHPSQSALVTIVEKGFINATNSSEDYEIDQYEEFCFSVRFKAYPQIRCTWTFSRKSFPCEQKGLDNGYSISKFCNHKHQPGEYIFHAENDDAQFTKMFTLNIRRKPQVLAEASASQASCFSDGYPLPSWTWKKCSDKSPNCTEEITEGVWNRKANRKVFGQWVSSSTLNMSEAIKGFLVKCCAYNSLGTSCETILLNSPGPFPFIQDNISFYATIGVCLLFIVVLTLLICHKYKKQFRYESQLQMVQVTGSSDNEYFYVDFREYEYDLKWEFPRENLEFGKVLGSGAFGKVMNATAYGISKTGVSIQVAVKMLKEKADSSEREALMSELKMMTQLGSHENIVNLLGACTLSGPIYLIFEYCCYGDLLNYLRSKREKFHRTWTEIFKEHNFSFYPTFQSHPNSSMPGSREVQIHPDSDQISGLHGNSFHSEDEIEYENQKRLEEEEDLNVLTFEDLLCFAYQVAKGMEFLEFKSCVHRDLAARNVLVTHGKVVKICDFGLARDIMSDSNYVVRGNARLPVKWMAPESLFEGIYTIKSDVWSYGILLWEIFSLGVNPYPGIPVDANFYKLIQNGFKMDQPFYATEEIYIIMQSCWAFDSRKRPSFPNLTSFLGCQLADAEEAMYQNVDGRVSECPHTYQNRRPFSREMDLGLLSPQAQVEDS
Sequence of ALK tyrosine kinase receptor (Homo sapiens) (Q9UM73 19-1620 limits assumed): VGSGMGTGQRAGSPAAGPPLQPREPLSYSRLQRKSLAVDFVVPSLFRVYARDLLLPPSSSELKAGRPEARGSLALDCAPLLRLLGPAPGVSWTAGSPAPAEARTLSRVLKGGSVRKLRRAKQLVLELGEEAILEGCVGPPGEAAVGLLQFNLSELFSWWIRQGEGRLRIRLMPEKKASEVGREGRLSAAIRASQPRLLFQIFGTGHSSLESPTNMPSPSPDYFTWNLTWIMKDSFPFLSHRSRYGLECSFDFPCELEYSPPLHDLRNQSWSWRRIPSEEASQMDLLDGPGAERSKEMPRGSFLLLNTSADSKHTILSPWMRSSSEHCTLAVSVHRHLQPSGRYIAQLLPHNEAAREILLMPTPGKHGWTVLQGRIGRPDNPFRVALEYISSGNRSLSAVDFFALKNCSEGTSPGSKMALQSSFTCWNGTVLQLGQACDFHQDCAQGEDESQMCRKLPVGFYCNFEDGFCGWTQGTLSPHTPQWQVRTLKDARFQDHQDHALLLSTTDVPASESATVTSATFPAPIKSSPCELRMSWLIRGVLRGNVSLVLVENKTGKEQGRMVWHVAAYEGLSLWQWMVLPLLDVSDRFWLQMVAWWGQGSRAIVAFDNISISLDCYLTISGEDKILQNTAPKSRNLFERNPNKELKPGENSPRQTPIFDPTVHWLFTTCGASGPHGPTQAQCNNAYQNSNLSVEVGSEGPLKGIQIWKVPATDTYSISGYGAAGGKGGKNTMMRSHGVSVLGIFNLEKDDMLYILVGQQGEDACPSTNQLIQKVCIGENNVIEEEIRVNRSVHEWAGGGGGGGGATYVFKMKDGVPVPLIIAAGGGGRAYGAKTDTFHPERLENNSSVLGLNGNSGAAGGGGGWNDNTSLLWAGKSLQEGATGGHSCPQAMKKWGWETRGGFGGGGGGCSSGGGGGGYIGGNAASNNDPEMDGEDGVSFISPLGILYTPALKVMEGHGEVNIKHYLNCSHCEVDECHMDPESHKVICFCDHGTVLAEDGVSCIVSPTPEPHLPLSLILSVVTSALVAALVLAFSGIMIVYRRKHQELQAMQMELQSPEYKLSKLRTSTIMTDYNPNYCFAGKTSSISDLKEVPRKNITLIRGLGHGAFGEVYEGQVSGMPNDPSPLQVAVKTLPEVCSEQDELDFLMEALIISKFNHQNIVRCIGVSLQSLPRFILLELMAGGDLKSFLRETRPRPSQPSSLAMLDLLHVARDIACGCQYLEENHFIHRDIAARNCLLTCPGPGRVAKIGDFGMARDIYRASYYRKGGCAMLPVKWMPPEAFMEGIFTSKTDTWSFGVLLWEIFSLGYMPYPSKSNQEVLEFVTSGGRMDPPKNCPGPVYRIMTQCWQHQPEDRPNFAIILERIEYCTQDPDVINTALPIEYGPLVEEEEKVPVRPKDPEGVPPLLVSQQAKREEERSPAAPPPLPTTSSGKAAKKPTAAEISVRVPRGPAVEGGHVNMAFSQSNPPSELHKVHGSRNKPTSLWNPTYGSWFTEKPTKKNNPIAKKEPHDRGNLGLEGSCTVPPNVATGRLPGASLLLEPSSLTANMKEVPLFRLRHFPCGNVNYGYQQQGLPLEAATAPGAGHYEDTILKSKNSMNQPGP

As to `Cc1[nH]nc(C2CC2)c1-c1ccc2c(NC(=O)C3CC3)noc2c1`, the inhibition in data set [1] was -0.3%; in data set [2] it was 36.7%; in [3], 3.7%; in [4], -2.3%; in [5], 3.3%; in [6], 0.3%. Further, the inhibition is 2.7% in [7]; -0.3% in data set [8]; -2% in data set [9]; 1.3% in data set [10]; 5.7% in data set [11]; 1% in data set [12]. Also, the inhibition amounted to 0% in data set [13], 4.7% in data set [14], 0.7% in [15] and 6% in data set [16].

As to `Cc1n[nH]c(C)c1-c1ccc2c(NC(=O)c3ccc(N4CCN(C)CC4)cc3)n[nH]c2c1`, the inhibition in [17] stood at 2.7%; in data set [18], 2.7%; in data set [19] it was 93.7%; in [20] it was 1.3%; in data set [21], 82%; in [23], 2.3%. In addition, the results for the inhibition in data set [24] and in data set [25] were 1.7% and 26%, respectively. In data set [22], the remaining at 0.5 h, 1 µM was 94%.

With `COC(=O)Nc1noc2cc(-c3c(-c4ccccn4)n[nH]c3C)ccc12`, the inhibition in data set [26] and in data set [27] was 5.7% in each case.
